Results on four compounds are retold here after patent publication US20210228562A1, “IRAK DEGRADERS AND USES THEREOF” (Kymera Therapeutics, Inc., priority 2019, published 2021).

A value given as a limit tells only on which side of the number the result lay.

T2 sequence (Q13422 whole entry): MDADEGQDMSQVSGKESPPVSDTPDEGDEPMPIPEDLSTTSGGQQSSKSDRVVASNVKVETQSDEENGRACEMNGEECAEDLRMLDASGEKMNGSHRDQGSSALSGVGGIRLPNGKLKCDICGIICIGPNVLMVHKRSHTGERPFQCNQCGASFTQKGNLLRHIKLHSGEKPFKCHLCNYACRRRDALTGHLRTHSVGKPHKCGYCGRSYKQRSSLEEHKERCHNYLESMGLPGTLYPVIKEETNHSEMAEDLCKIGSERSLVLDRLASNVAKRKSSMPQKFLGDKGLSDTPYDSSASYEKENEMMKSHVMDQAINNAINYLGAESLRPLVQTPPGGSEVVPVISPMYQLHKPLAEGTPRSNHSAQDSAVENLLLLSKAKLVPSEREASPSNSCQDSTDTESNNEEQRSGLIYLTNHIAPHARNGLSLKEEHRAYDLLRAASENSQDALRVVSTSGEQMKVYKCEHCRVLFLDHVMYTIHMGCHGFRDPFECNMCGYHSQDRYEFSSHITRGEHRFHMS
T2 sequence (Q96SW2 whole entry): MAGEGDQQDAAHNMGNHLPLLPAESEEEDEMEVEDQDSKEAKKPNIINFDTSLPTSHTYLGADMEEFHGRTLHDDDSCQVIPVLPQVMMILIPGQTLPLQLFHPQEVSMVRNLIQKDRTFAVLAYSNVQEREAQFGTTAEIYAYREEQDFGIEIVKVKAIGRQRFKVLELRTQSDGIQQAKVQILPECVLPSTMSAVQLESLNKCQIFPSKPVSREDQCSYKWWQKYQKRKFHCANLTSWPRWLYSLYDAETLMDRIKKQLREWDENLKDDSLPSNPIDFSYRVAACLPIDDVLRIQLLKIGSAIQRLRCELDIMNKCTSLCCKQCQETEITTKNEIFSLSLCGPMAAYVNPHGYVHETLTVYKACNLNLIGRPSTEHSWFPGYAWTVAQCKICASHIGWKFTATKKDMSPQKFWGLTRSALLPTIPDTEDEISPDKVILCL
T2 sequence (Q16531 whole entry partner): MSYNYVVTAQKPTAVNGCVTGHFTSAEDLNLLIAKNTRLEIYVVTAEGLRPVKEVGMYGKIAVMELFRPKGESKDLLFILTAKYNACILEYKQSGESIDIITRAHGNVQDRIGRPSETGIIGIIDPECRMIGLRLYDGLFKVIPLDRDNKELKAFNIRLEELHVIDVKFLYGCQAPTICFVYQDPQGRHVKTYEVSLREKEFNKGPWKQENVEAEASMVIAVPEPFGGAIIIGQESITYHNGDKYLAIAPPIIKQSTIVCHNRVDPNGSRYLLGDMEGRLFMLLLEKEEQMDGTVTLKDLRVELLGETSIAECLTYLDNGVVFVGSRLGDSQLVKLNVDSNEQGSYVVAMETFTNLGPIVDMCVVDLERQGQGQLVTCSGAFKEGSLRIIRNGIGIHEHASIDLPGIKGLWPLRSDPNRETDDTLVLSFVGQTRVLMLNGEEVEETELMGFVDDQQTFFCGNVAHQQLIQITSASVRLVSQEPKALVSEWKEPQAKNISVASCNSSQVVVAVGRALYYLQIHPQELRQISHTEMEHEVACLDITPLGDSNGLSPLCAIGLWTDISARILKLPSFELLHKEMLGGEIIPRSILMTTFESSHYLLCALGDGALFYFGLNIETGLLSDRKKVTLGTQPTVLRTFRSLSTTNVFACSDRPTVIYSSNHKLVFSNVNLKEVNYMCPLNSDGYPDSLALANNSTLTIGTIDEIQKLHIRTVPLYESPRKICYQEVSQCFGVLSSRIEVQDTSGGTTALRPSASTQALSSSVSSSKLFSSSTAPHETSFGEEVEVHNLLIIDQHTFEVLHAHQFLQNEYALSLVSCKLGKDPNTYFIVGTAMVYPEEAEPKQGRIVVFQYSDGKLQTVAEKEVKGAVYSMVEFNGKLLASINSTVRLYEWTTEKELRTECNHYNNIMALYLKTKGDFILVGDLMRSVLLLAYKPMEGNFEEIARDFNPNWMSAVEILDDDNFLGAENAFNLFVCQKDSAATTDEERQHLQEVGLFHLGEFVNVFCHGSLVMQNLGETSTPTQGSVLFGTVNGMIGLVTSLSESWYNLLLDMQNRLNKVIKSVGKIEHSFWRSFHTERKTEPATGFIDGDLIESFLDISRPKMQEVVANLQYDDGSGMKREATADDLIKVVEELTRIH

One assay addresses T1, IRAK4 (Homo sapiens, UniProt Q9NWZ3).
T1 construct: endogenous in cells; host or cells: OCI-LY10
T1 sequence (Q9NWZ3 1-460): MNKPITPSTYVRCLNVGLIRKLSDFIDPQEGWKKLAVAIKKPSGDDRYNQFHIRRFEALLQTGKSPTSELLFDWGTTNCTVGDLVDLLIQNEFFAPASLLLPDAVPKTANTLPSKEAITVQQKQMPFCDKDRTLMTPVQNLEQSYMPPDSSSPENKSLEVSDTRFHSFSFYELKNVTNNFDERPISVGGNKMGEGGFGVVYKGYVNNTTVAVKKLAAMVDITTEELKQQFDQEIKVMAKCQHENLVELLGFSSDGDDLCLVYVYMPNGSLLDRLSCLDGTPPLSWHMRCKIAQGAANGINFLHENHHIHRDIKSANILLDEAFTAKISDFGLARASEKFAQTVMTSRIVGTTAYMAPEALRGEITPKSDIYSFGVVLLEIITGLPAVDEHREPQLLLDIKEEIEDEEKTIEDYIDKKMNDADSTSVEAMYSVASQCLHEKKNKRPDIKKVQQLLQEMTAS
Briefly: IRAK4 MSD Degradation in OCI-LY10. The assay is classed as cell-based. Particulars: OCI-LY10 cells, 24 hrs incubation; read-out: IRAK4 degradation in OCI-LY10 at 24 hrs: DC50. The procedure:
Degradation of IRAK4 in OCI-LY10 was quantitatively measured using Meso Scale Discovery technology. OCI-LY10 cells were seeded in 96-well plates (Corning 3799) with a density of 300,000 cells per well in 100 μL fresh media. Compounds were then added to the assay plates with a final top concentration of 1 to 10 μM in a 1:3 dilution series with total of 8 doses. The assay plates were then incubated for 4 to 24 hours at 37° C. under 5% CO2. The assay plates were then centrifuged for 5 minutes and the cell pellets were treated with 100 μL/well RIPA lysis buffer (Boston BioProducts BP-115D) with proteinase inhibitors. To prepare MSD assay plates (Meso Scale Discovery Catalog number L15XA-3), the plates were coated with 2 μg/mL capture antibody (mouse Anti-IRAK4 antibody [2H9], ab119942) in PBS, at 40 μL/well. The plates were then incubated overnight at 4° C., washed 3 times with 150 μL/well TBST buffer (Cell Signaling Technology, Catalog number 9997S) and blocked with 150 μL/well blocking buffer (Meso Scale Discovery Catalog number R93BA-4). Cell lysates were then added to MSD assay plates and the plates were incubated at room temperature for 1 hour. The plates were then washed 3 times with 150 μL/well TBST buffer and 25 μL/well primary detection antibody (rabbit Anti-IRAK4 antibody [Y279], from Abcam. Catalog number ab32511, 1 μg/mL). The assay plates were then incubated at room temperature for 1 hour, washed 3 times with 150 μL/well TBST buffer and 25 μL/well secondary detection antibody, SULFO-TAG anti-rabbit antibody were added (anti rabbit antibody from Meso Scale Discovery, Catalog number R32AB-1, 1 μg/mL). The assay plates were then incubated at room temperature for 1 hour, washed 3 times with 150 μL/well TBST buffer, and 150 μL/well MSD reading buffer (Meso Scale Discovery catalog number R92TC-2) was added. The plates were then analyzed by a MSD reader (Meso Scale Discovery, Model Quick Plex SQ 120). The data was then analyzed by software Prism 7.0 from GraphPad and the dose-depended IRAK4 degradation were fit using a three-parameter logistic equation to calculate DC50.
By DC50 is commonly meant the concentration at which degradation of the target reaches its halfway point. As to `CN(C[C@H]1CC[C@H](c2nc3cc(C(C)(C)O)c(NC(=O)c4cccc(C(F)(F)F)n4)cc3s2)CC1)[C@H]1CC[C@H](CNc2cccc3c2C(=O)N(C2CCC(=O)NC2=O)C3=O)CC1` (stereo partly shown) [I-41], the DC50 was less than 50 nM.
As for `COc1cc2nc([C@H]3CC[C@H](CN4CC5(CC(CCNc6cccc7c6C(=O)N(C6CCC(=O)NC6=O)C7=O)C5)C4)CC3)sc2cc1-n1ccc2ccccc2c1=O` (stereo partly shown) [I-42], the DC50 lay in the range of 50 to 100 nM.
With `CC(C)(O)c1cc2nc([C@H]3CC[C@H](CN4CC(CCNc5cccc6c5C(=O)N(C5CCC(=O)NC5=O)C6=O)C4)CC3)sc2cc1NC(=O)c1cccc(C(F)(F)F)n1` (stereo partly shown) [I-45], the 50% degradation concentration (DC50) was less than 50 nM.
The same measure, in the same setting: as for `CN(C[C@H]1CC[C@H](c2nc3cc(C(C)(C)O)c(NC(=O)c4cccc(C(F)(F)F)n4)cc3s2)CC1)[C@H]1CC[C@@H](CCNc2cccc3c2C(=O)N(C2CCC(=O)NC2=O)C3=O)CC1` (stereo partly shown) [I-46], the figure is 50 to 100 nM.

Another assay has as its target T2, Ikaros (protein product of gene IKZF1) (Homo sapiens, UniProt Q13422+Q96SW2).
T2 construct: endogenous in cells; host or cells: OCI-LY10
Briefly: Quantification of Ikaros degradation in OCI-LY10 cells (quantitative immunoblotting). In kind it is cell-based. Particulars: 6 h treatment. On the procedure:
(§1) Degradation of Ikaros (protein product of gene IKZF1) and Aiolos (protein product of gene IKZF3) were determined by quantitative immunoblotting as follows. OCI-LY10 cells, 2×10^6 cells/well, were treated with listed concentrations of IRAK4 degraders or control compounds in 6 well plates for 6 h. Cells were collected, washed with cold PBS, lysed in RIPA buffer (Boston BioProducts BP-115D) with protease/phosphatase inhibitor cocktail (Roche 05892791001/Roche 04906837001) and centrifuged at 13000 RPM for 20 min to precipitate insoluble material. The supernatant fraction was diluted in SDS-PAGE loading buffer (Beyotime Bio P0015) and 20 μL of each sample was resolved on 4-12% Bis-Tris SDS-PAGE gels (Novex, WG1402BOX). Resolved samples were transferred to nitrocellulose membranes by wet electro-transfer method at 250 mV for 1.5 h. The membrane was blocked with LICOR blocking buffer (LI-COR, 927-50000) for 1 hour, washed three times with TBST (CST #99975) for 5 minutes each and incubated with primary antibody prepared in block buffer with 0.1% Tween-20 (Solarbio, P8220) at 4° C. overnight. Ikaros antibody was rabbit monoclonal D6N9Y (CST #14859), at 1:1000 dilution. Aiolos antibody was rabbit monoclonal D1C1E (CST #15103), at 1:1000 dilution. Signal was normalized to mouse anti-beta-Actin monoclonal 8H10D10 (CST #3700) used at 1:10,000 dilution. After incubation in primary antibodies, membranes were washed three times with TBST, 5 minutes each, incubated with fluorescently labeled secondary antibodies anti-rabbit IgG (Licor, 926-32211) at 1:5000 dilution; anti-mouse IgG (LI-COR, 926-68070) at 1:5000 dilution, for 1 hour at RT. After incubation in secondary, membranes were washed three times with TBST, 5 minutes each and read on LICOR Odyssey imager. Data was reported as signal for Ikaros or Aiolos relative to signal for actin, and normalized to DMSO-treated control.
A general note: A western blot detects proteins with antibodies after separation by electrophoresis.
`CN(C[C@H]1CC[C@H](c2nc3cc(C(C)(C)O)c(NC(=O)c4cccc(C(F)(F)F)n4)cc3s2)CC1)[C@H]1CC[C@H](CNc2cccc3c2C(=O)N(C2CCC(=O)NC2=O)C3=O)CC1` (stereo partly shown) [I-41] came in with a half-maximal degradation concentration (DC50) of less than 50 nM.
With `COc1cc2nc([C@H]3CC[C@H](CN4CC5(CC(CCNc6cccc7c6C(=O)N(C6CCC(=O)NC6=O)C7=O)C5)C4)CC3)sc2cc1-n1ccc2ccccc2c1=O` (stereo partly shown) [I-42], the DC50 is less than 50 nM.
In the case of `CC(C)(O)c1cc2nc([C@H]3CC[C@H](CN4CC(CCNc5cccc6c5C(=O)N(C5CCC(=O)NC5=O)C6=O)C4)CC3)sc2cc1NC(=O)c1cccc(C(F)(F)F)n1` (stereo partly shown) [I-45], the DC50 was 100 to 500 nM.
The same measure, in the same setting: as for `CN(C[C@H]1CC[C@H](c2nc3cc(C(C)(C)O)c(NC(=O)c4cccc(C(F)(F)F)n4)cc3s2)CC1)[C@H]1CC[C@@H](CCNc2cccc3c2C(=O)N(C2CCC(=O)NC2=O)C3=O)CC1` (stereo partly shown) [I-46], the figure is less than 50 nM.

For a further assay, the target named is T3, Aiolos (protein product of gene IKZF3) (Homo sapiens, UniProt Q96SW2+Q9UKT9).
T3 construct: endogenous in cells; host or cells: OCI-LY10
T3 sequence (Q9UKT9 whole entry): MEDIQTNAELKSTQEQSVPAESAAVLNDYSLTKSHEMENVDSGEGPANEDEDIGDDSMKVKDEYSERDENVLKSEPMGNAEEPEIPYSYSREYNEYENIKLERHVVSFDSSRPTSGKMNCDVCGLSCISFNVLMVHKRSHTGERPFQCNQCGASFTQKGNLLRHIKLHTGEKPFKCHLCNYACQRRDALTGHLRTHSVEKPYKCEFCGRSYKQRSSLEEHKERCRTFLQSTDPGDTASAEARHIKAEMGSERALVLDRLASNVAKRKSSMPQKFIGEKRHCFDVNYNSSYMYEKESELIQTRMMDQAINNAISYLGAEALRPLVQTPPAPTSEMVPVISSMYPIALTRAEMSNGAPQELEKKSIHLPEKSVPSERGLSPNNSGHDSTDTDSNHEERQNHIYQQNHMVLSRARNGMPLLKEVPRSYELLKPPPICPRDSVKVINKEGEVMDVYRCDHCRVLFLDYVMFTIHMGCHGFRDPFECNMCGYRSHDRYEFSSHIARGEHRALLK
T3 sequence (Q96SW2 whole entry): as the sequence (Q96SW2 whole entry) above
T3 sequence (Q16531 whole entry partner): as the sequence (Q16531 whole entry partner) above
As to the kind of experiment: Quantification of Aiolos degradation in OCI-LY10 cells (quantitative immunoblotting). The assay is classed as cell-based. Particulars: 6 h treatment. On the procedure:
as §1
In turn, `CN(C[C@H]1CC[C@H](c2nc3cc(C(C)(C)O)c(NC(=O)c4cccc(C(F)(F)F)n4)cc3s2)CC1)[C@H]1CC[C@H](CNc2cccc3c2C(=O)N(C2CCC(=O)NC2=O)C3=O)CC1` (stereo partly shown) [I-41] yielded a DC50 of less than 50 nM.
Same read-out and setting: as for `COc1cc2nc([C@H]3CC[C@H](CN4CC5(CC(CCNc6cccc7c6C(=O)N(C6CCC(=O)NC6=O)C7=O)C5)C4)CC3)sc2cc1-n1ccc2ccccc2c1=O` (stereo partly shown) [I-42], the figure is less than 50 nM; as for `CC(C)(O)c1cc2nc([C@H]3CC[C@H](CN4CC(CCNc5cccc6c5C(=O)N(C5CCC(=O)NC5=O)C6=O)C4)CC3)sc2cc1NC(=O)c1cccc(C(F)(F)F)n1` (stereo partly shown) [I-45], 100 to 500 nM.
The same measure, in the same setting: as for `CN(C[C@H]1CC[C@H](c2nc3cc(C(C)(C)O)c(NC(=O)c4cccc(C(F)(F)F)n4)cc3s2)CC1)[C@H]1CC[C@@H](CCNc2cccc3c2C(=O)N(C2CCC(=O)NC2=O)C3=O)CC1` (stereo partly shown) [I-46], the figure is less than 50 nM.

A further assay relates to OCI-LY10 cells. Briefly: CTG Cell Viability Assay - OCI-LY10. The assay is classed as cell-based. Particulars: Homo sapiens, 96 h, CellTiter-Glo, 4 days incubation. On the procedure: Compound-mediated viability effect on OCI-LY10 or SUDHL-2 was quantitatively determined using the CellTiter-Glo® Luminescent Cell Viability Assay kit from Promega (Catalog number G7570) following manufacturer's recommended procedures. Briefly, OCI-LY10 or SUDHL-2 cells were seeded into 384 well plates (Grenier Bio-One, Catalog number 781080) with a density of 10,000 cells per well. Compounds were then added to the assay plate with final top concentration of 10 μM and 1:3 dilution series with total of 9 doses. The final DMSO concentration was normalized to 0.2%. The assay plates were incubated at 37° C. for 4 days under 5% CO2. Then the assay plate was equilibrated at room temperature for 10 minutes. To determine cell viability, 30 μL CellTiter Glo reagent was added to each well and the assay plate was centrifuged at 1000 rpm for 30 second, incubated at room temperature for 10 min, and analyzed by detecting the luminescence using a multimode plate reader (EnVision 2105, PerkinElmer). The data was then analyzed by software Prism 7.0 from GraphPad and the dose response curves were fit using a three-parameter logistic equation to calculate IC50.
For orientation: ATP-based viability assays read luminescence as a measure of living cells.
Broadly, the IC50 is the concentration at which inhibition is half-maximal. A high value points to weaker potency in that assay. For the compound `CN(C[C@H]1CC[C@H](c2nc3cc(C(C)(C)O)c(NC(=O)c4cccc(C(F)(F)F)n4)cc3s2)CC1)[C@H]1CC[C@H](CNc2cccc3c2C(=O)N(C2CCC(=O)NC2=O)C3=O)CC1` (stereo partly shown) [I-41], the 50% inhibitory concentration (IC50) was less than 50 nM.
Same read-out and setting: as for `COc1cc2nc([C@H]3CC[C@H](CN4CC5(CC(CCNc6cccc7c6C(=O)N(C6CCC(=O)NC6=O)C7=O)C5)C4)CC3)sc2cc1-n1ccc2ccccc2c1=O` (stereo partly shown) [I-42], the figure is less than 50 nM.
In the case of `CC(C)(O)c1cc2nc([C@H]3CC[C@H](CN4CC(CCNc5cccc6c5C(=O)N(C5CCC(=O)NC5=O)C6=O)C4)CC3)sc2cc1NC(=O)c1cccc(C(F)(F)F)n1` (stereo partly shown) [I-45], the IC50 fell in the range of 100 to 500 nM.
Still for that read-out and setting: as for `CN(C[C@H]1CC[C@H](c2nc3cc(C(C)(C)O)c(NC(=O)c4cccc(C(F)(F)F)n4)cc3s2)CC1)[C@H]1CC[C@@H](CCNc2cccc3c2C(=O)N(C2CCC(=O)NC2=O)C3=O)CC1` (stereo partly shown) [I-46], the figure is less than 50 nM.
